Test results taken from patent US7598260B2, “CDK-inhibitory pyrimidines, their production and use as pharmaceutical agents” (Bayer Schering Pharma Aktiengesellschaft, priority 2001, dated 2009).
Where two headings read alike, the source gives them in different places.

How the values were obtained:
[1] = tested on: MCF-7 cells; test: Proliferation assay, crystal violet staining (cell test), MCF-7; assay type: cell-based; details: Homo sapiens
Protocol: (§1) Cultivated human tumor cells (as indicated) are flattened out at a density of 5000 cells/measuring point in a 96-hole multititer plate in 200 μl of the corresponding growth medium. After 24 hours, the cells of one plate (zero-point plate) are colored with crystal violet (see below), while the medium of the other plates is replaced by fresh culture medium (200 μl), to which the test substances are added at various concentrations (0 μm, as well as in the range of 0.01-30 μm; the final concentration of the solvent dimethyl sulfoxide is 0.5%). The cells are incubated for 4 days in the presence of test substances. The cell proliferation is determined by coloring the cells with crystal violet: the cells are fixed by adding 20 μl/measuring point of a 11% glutaric aldehyde solution for 15 minutes at room temperature. After three washing cycles of the fixed cells with water, the plates are dried at room temperature. The cells are colored by adding 100 μl/measuring point of a 0.1% crystal violet solution (pH is set at 3 by adding acetic acid). After three washing cycles of the colored cells with water, the plates are dried at room temperature. The dye is dissolved by adding 100 μl/measuring point of a 10% acetic acid solution. The extinction is determined by photometry at a wavelength of 595 nm. The change of cell growth, in percent, is calculated by standardization of the measured values to the extinction values of the zero-point plate (=0%) and the extinction of the untreated (0 μm) cells (=100%).

[2] = biological target: T1, CDK2/CycE (Homo sapiens, UniProt P24941); test: CDK2/CycE kinase assay (enzyme test); assay type: biochemical; details: read-out: Inhibition IC50 [nM] CDK2/CycE
T1 construct: GST; purchased Dr. Dieter Marmé, Klinik für Tumorbiologie, Freiburg; host or cells: baculovirus-infected Sf9 insect cells
Protocol: Recombinant CDK2- and CycE-GST-fusion proteins, purified from baculovirus-infected insect cells (Sf9), are obtained by Dr. Dieter Marmé, Klinik für Tumorbiologie [Clinic for Tumor Biology], Freiburg. Histone IIIS, which is used as a kinase substrate, is purchased by the Sigma Company.
The reaction was is stopped by adding EDTA solution (250 mmol, pH 8.0, 14 μl/measuring point).
From each reaction batch, 10 μl applied to P30 filter strips (Wallac Company), and non-incorporated ^33P-ATP is removed by subjecting the filter strips to three washing cycles for 10 minutes each in 0.5% phosphoric acid. After the filter strips are dried for one hour at 70° C., the filter were are covered with scintillator strips (MeltiLex™ A, Wallac Company) and baked for one hour at 90° C. The amount of incorporated ^33P (substrate phosphorylation) is determined by scintillation measurement in a gamma-radiation measuring device (Wallac).

[3] = tested on: human tumor cells (as indicated); test: Proliferation assay, crystal violet staining, other human tumor cells as indicated in the tables; assay type: cell-based; details: 4 days incubation
Protocol: as §1

[4] = MCF7, MCF-7 cells, comparison with known compounds, read-out: MCF-7 IC50
[5] = 96 h, MCF7 cells, 4 days incubation, read-out: Proliferation IC50 [μM] MCF7
[6] = DU-145, 96 h, DU145 cells, read-out: Proliferation IC50 [μM] DU145
[7] = HCT-116, 96 h, HCT116 cells, read-out: Proliferation IC50 [μM] HCT116
[8] = NCI-H460, 96 h, H460 cells, read-out: Proliferation IC50 [μM] H460

Row | SMILES | IC50 [2] [nM] | IC50 [1, 5] [µM] | other results
1 | O=C1Cc2c([nH]c3ccc([N+](=O)[O-])cc23)-c2ccccc2N1 [Alsterpaullone, reference compound] | – | – | IC50 [1, 4]: 1.2 µM
2 | CC(C)[C@H](CO)Nc1nc(Nc2ccc(S(N)(=O)=O)cc2)ncc1Br [Example 10] | 4 | 0.2 | IC50 [3, 6]: 0.5 µM; IC50 [3, 7]: 0.5 µM; IC50 [3, 8]: 0.5 µM
3 | C#CCNc1nc(Nc2cccc(S(=O)(=O)CCO)c2)ncc1Br [Example 21] | 400 | 2 | –
4 | C#CCNc1nc(Nc2cccc(S(=O)(=O)C(F)(F)F)c2)ncc1Br [Example 27] | > 10000 | – | –
5 | C#CCNc1nc(Nc2cccc(S(=O)(=O)NCCCC)c2)ncc1Br [Example 34] | 1800 | – | –
6 | C#CCOc1nc(Nc2cccc(OCC3CO3)c2)ncc1Br (stereo not drawn) [Example 51] | 70 | 8 | –
7 | C#CCOc1nc(Nc2ccc(OCC(O)CN3CCN(Cc4ccc5c(c4)OCO5)CC3)cc2)ncc1Br (stereo not drawn) [Example 96] | 400 | – | –
8 | C#CCOc1nc(Nc2ccc(OCC(O)CN3CCN(c4ccccc4C#N)CC3)cc2)ncc1Br (stereo not drawn) [Example 98] | 2000 | – | –
9 | O=C1Cc2c([nH]c3ccc(Br)cc23)-c2ccccc2N1 [Kenpaullone, reference compound] | – | – | IC50 [1, 4]: 6 µM
10 | Cn1cnc2c(NCc3ccccc3)nc(NCCO)nc21 [Olomoucine, reference compound] | – | – | IC50 [1, 4]: 30 µM
11 | CC(C)[C@H](CO)Nc1nc(Nc2cccc(Cl)c2)c2ncn(C(C)C)c2n1 [Purvalanol A, reference compound] | – | – | IC50 [1, 4]: 2 µM

Further lines, with some results ahead:

Row | IC50 [2] [nM] | IC50 [1, 5] [µM] | SMILES | other results
12 | 300 | 8 | COC[C@H](C)Nc1nc(Nc2ccc(O)cc2)ncc1Br [Example 1] | –
13 | 700 | – | Oc1ccc(Nc2ncc(Br)c(NCCN3CCOCC3)n2)cc1 [Example 2] | –
14 | 6 | 0.2 | C#CCNc1nc(Nc2ccc(S(N)(=O)=O)cc2)ncc1Br [Example 11] | IC50 [1, 4]: 0.2 µM; IC50 [3, 6]: 0.2 µM; IC50 [3, 7]: 0.3 µM; IC50 [3, 8]: 0.5 µM
15 | 400 | 4 | COC[C@H](C)Nc1nc(Nc2ccc(SC)cc2)ncc1Br [Example 12] | –
16 | 2000 | > 10 | CSc1ccc(Nc2ncc(Br)c(NCCN3CCOCC3)n2)cc1 [Example 13] | –
17 | 300 | 3 | C#CCNc1nc(Nc2ccc(SC)cc2)ncc1Br [Example 16, 5-Bromo-N2-(4-methylthiophenyl)-N4-2-propynyl-2,4-pyrimidine diamine] | –
18 | 60 | 4 | C#CCOc1nc(Nc2cccc(O)c2)ncc1Br [Example 20] | –
19 | 180 | 3 | C#CCNc1nc(Nc2ccc(SC(F)F)cc2)ncc1Br [Example 23, 5-Bromo-N2-(4-difluoromethylthiophenyl)-N4-2-propynyl-2,4-pyrimidine diamine] | –
20 | 400 | 5 | C#CCNc1nc(Nc2ccc(SC(F)(F)F)cc2)ncc1Br [Example 24, 5-Bromo-N4-2-propynyl-N2-(4-trifluoromethylthiophenyl)-2,4-pyrimidine diamine] | –
21 | 300 | 3 | C#CCNc1nc(Nc2cccc(SC)c2)ncc1Br [Example 26] | –
22 | 120 | > 10 | C#CCNc1nc(Nc2cccc(SC(F)(F)F)c2)ncc1Br [Example 35, 5-Bromo-N4-2-propynyl-N2-(3-trifluoromethylthiophenyl)-2,4-pyrimidine diamine] | –
23 | 80 | > 10 | C#CCNc1nc(Nc2ccc3scnc3c2)ncc1Br [Example 38, N-[5-Bromo-4-(2-propynylamino)-2-pyrimidinyl]-benzothiazole-5-amine] | –
24 | 12 | 0.7 | NS(=O)(=O)c1ccc(Nc2ncc(Br)c(OCCCC(F)(F)F)n2)cc1 [Example 47] | IC50 [3, 6]: 0.9 µM; IC50 [3, 7]: 1.3 µM; IC50 [3, 8]: 1.8 µM
25 | 150 | – | C#CCNc1nc(Nc2ccc(C(C)=O)cc2)ncc1Br [Example 50, 1-[4-[(5-Bromo-4-(2-propynylamino)-2-pyrimidinyl)amino]phenyl]-ethanone] | –
26 | 3000 | – | CCOCCOCCOc1nc(Nc2ccc(C(C)=O)cc2)ncc1Br [Example 86] | –
